Structures can show the parent of a compound that is named as a salt. Where two headings read alike, the source gives them in different places.
Legend:
[1] = test system: leukotriene pathway in human whole blood; test: Human whole blood assay (LTB4 levels after A23187 stimulation); type: cell-based
Protocol: (§1) The ability of the compounds of the present invention to treat a FLAP-mediated disease and/or disorder, or associated symptoms or complications thereof, was determined using the following procedures. Binding assay data represent the average value obtained from two different assay plates, with samples run in duplicate on each plate. Human whole blood assay data represent a single replicate on an assay plate using whole blood from at least one healthy donor.
An in vitro cellular assay was performed using human whole blood collected in heparin-containing tubes, which was used to test the ability of compounds to modulate the leukotriene pathway in human whole blood. The blood was diluted 1:1 in RPMI medium, pre-incubated for 15 min at 37° Celsius with test compounds at various concentrations, and then stimulated with calcium ionophore, A23187 (7 μg/mL), for 30 min at 37° Celsius. The samples were then centrifuged and plasma was removed. The plasma was diluted in assay buffer and LTB4 levels were measured using a commercial kit (Enzo Life Sciences). The concentration of each compound that was required for half-maximal inhibition (modulation) of recombinant enzyme activity (IC50) was calculated by a 4-parameter equation using the program GraphPad Prism (GraphPad software).

human FLAP = human FLAP (Homo sapiens (Human), UniProt P20292); test: FLAP binding assay (HTRF format)
Sequence of human FLAP (P20292 whole entry): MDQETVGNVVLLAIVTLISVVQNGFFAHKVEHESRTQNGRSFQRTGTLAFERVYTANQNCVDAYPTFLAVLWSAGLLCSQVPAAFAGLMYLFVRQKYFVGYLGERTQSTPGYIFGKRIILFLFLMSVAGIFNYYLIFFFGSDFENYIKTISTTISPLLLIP
Protocol: as §1
Data are expressed as a HTRF ratio.

[2] = blood diluted 1:1 in RPMI, 15 min pre-incubation, A23187 7 μg/mL for 30 min at 37° Celsius, plasma LTB4
[3] = human whole blood diluted 1:1 in RPMI, A23187 stimulation, Table 6 (additional runs)
[4] = human FLAP wild type membranes, HTRF format, Table 6 (additional runs)

| Compound | IC50 [1, 2] [nM] | IC50 [1, 3] [nM] | Ki (human FLAP; [4]) [nM] | Ki (human FLAP; human FLAP-containing membranes, HTRF ligand 25 nM, 2 h, average of two plates, duplicates, read-out: FLAP Binding wild type HTRF Ki) [nM] |
| --- | --- | --- | --- | --- |
| 2-(4-Cyclobutyl-2-fluoro-3-{[4-(trifluoromethyl)benzyl]oxy}phenyl)-5H-pyrrolo[2,3-b]pyrazine trifluoroacetate salt [Example 177] | 771 | 892 | – | – |
| 5-(4-Cyclobutyl-2-fluoro-3-hydroxyphenyl)pyridin-2-amine [Intermediate F] | 1300 | – | – | – |
| 5-(4-Cyclobutyl-2-fluoro-3-methoxyphenyl)-1H-pyrrolo[2,3-b]pyridine [Intermediate I] | 1670 | 1670 | – | – |
| 6-Cyclobutyl-2-fluoro-3-(5H-pyrrolo[2,3-b]pyrazin-2-yl)phenol [Example 176] | 892 | 1300 | ~75 | – |
| Nc1cnc(-c2ccc(C3CCC3)c(OCC(O)Cn3c(=O)[nH]c4ccccc43)c2F)cn1 (racemic) [Example 311, racemic 1-{3-[3-(5-Aminopyrazin-2-yl)-6-cyclobutyl-2-fluorophenoxy]-2-hydroxypropyl}-1,3-dihydro-2H-benzimidazol-2-one] | – | 266 | – | – |
| Nc1cnc(-c2ccc(C3CCC3)c(OCc3cccc(C(F)(F)F)c3)c2F)cn1 [Compound 2, 5-(4-Cyclobutyl-2-fluoro-3-{[3-(trifluoromethyl)benzyl]oxy}phenyl)pyrazin-2-amine] | – | 895 | 86.1 | – |
| COc1cc(Oc2c(C3CCC3)ccc(-c3cnc(N)cn3)c2F)ncn1 [Example 97, 5-{4-Cyclobutyl-2-fluoro-3-[(6-methoxypyrimidin-4-yl)oxy]phenyl}pyrazin-2-amine] | – | 126 | – | – |
| Nc1cnc(-c2ccc(C3CCC3)c(Oc3cc(O)ncn3)c2F)cn1 [Example 98] | – | 124 | – | – |
| Nc1cnc(-c2ccc(C3CCC3)c(Oc3ccnc(N)n3)c2F)cn1 [Example 130, 4-[3-(5-Aminopyrazin-2-yl)-6-cyclobutyl-2-fluorophenoxy]pyrimidin-2-amine] | – | 21.4 | – | – |
| Nc1cnc(-c2ccc(C3CCC3)c(Oc3cc(N)ncn3)c2F)cn1 [Example 136, 6-[3-(5-Aminopyrazin-2-yl)-6-cyclobutyl-2-fluorophenoxy]pyrimidin-4-amine] | – | 56.6 | 3.9 | – |
| NC(=O)c1ccc(Oc2c(C3CCC3)ccc(-c3cnc(N)cn3)c2F)cc1 [Example 155, 4-[3-(5-Aminopyrazin-2-yl)-6-cyclobutyl-2-fluorophenoxy]benzamide] | – | 128 | – | – |
| Fc1c(-c2cnc3[nH]ccc3n2)ccc(C2CCC2)c1OCc1ccccc1 [Example 178, 2-[3-(Benzyloxy)-4-cyclobutyl-2-fluorophenyl]-5H-pyrrolo[2.3-b]pyrazine] | – | 771 | – | 354 |
| CC(C)(C)c1ccc(-c2cnc(N)nc2)c(F)c1Oc1ncccn1 [Example 207, 5-[4-tert-Butyl-2-fluoro-3-(pyrimidin-2-yloxy)phenyl]pyrimidin-2-amine] | – | 78 | 51.5 | – |
| CC(C)(C)c1ccc(-c2cnc(N)nc2)c(F)c1Oc1cc(N)ncn1 [Example 208, 5-{3-[(6-Aminopyrimidin-4-yl)oxy]-4-tert-butyl-2-fluorophenyl}pyrimidin-2-amine] | – | 160 | – | – |
| Fc1c(-c2cnc3c(c2)OCCN3)ccc(C2CCC2)c1Oc1ncccn1 [Example 225, 7-(4-Cyclobutyl-2-fluoro-3-(pyrimidin-2-yloxy)phenyl)-3,4-dihydro-2H-pyrido[3,2-b][1,4]oxazine] | – | 287 | 23.2 | – |
| N#CCOc1c(C2CCC2)ccc(-c2cnc(N)cn2)c1F [Example 276, [3-(5-Aminopyrazin-2-yl)-6-cyclobutyl-2-fluorophenoxy]acetonitrile] | – | 1860 | – | – |
| Nc1cnc(-c2ccc(C3CCC3)c(Oc3cccnn3)c2F)cn1 [Example 277, 5-[4-Cyclobutyl-2-fluoro-3-(pyridazin-3-yloxy)phenyl]pyrazin-2-amine] | – | 191 | – | – |
| Nc1cnc(-c2ccc(C3CC3)c(Oc3nccc(N)n3)c2F)cn1 [Example 279, 2-[3-(5-Aminopyrazin-2-yl)-6-cyclopropyl-2-fluorophenoxy]pyrimidin-4-amine] | – | 114 | – | – |
| COC(=O)c1coc(COc2c(C3CCC3)ccc(-c3cnc(N)cn3)c2F)n1 [Example 281, Methyl 2-{[3-(5-aminopyrazin-2-yl)-6-cyclobutyl-2-fluorophenoxy]methyl}-1,3-oxazole-4-carboxylate trifluoroacetic acid salt] | – | 453 | – | – |

| Compound | IC50 [1, 2] [nM] | IC50 [1, 3] [nM] | Ki (human FLAP; [4]) [nM] | Ki (human FLAP; human FLAP-containing membranes, HTRF ligand 25 nM, 2 h, average of two plates, duplicates, read-out: FLAP Binding wild type HTRF Ki) [nM] |
| --- | --- | --- | --- | --- |
| Nc1cnc(-c2ccc(C3CCC3)c(OCc3nc4ccccc4s3)c2F)cn1 [Example 283, 5-[3-(1,3-Benzothiazol-2-ylmethoxy)-4-cyclobutyl-2-fluorophenyl]pyrazin-2-amine trifluoroacetic acid salt] | – | 538 | – | – |
| N#Cc1cccnc1COc1c(C2CCC2)ccc(-c2cnc(N)cn2)c1F [Example 286, 2-{[3-(5-Aminopyrazin-2-yl)-6-cyclobutyl-2-fluorophenoxy]methyl)}pyridine-3-carbonitrile trifluoroacetic acid salt] | – | 1190 | 81.7 | – |
| Cc1nc(COc2c(C3CCC3)ccc(-c3cnc(N)cn3)c2F)cs1 [Example 287, 5-{4-Cyclobutyl-2-fluoro-3-[(2-methyl-1,3-thiazol-4-yl)methoxy]phenyl}pyrazin-2-amine trifluoroacetic acid salt] | – | > 1000 | 17.6 | – |
| Nc1cnc(-c2ccc(C3CCC3)c(OCCN3C(=O)c4ccccc4C3=O)c2F)cn1 [Example 293, 2-{2-[3-(5-Aminopyrazin-2-yl)-6-cyclobutyl-2-fluorophenoxy]ethyl}-1H-isoindole-1,3(2H)-dione] | – | 100 | – | – |
| Nc1cnc(-c2ccc(C3CCC3)c(OCCNc3cnccn3)c2F)cn1 [Example 295, 5-{4-Cyclobutyl-2-fluoro-3-[2-(pyrazin-2-ylamino)ethoxy]phenyl}pyrazin-2-amine trifluoroacetic acid salt] | – | 188 | – | – |
| Nc1cnc(-c2ccc(C3CCC3)c(OCCNc3ncccn3)c2F)cn1 [Example 296, N-{2-[3-(5-Aminopyrazin-2-yl)-6-cyclobutyl-2-fluorophenoxy]ethyl}pyrimidin-2-amine trifluoroacetic acid salt] | – | 283 | – | – |
| Nc1cnc(-c2ccc(C3CCC3)c(OCCNc3ccncn3)c2F)cn1 [Example 297, N-{2-[3-(5-Aminopyrazin-2-yl)-6-cyclobutyl-2-fluorophenoxy]ethyl}pyrimidin-4-amine] | – | 212 | – | – |
| Cc1ccc(-c2cnc(N)cn2)c(F)c1Oc1ncccn1 [Example 314, 5-[2-Fluoro-4-methyl-3-(pyrimidin-2-yloxy)phenyl]pyrazin-2-amine] | – | > 10000 | – | – |
| Nc1ncc(-c2ccc(C3CCCC3)c(Oc3ncccn3)c2F)cn1 [Example 334, 5-[4-Cyclopentyl-2-fluoro-3-(pyrimidin-2-yloxy)phenyl]pyrimidin-2-amine] | – | 52.7 | 4.6 | – |
| Nc1ccnc(Oc2c(C3CCCC3)ccc(-c3cnc(N)nc3)c2F)n1 [Example 335, 5-{3-[(4-Aminopyrimidin-2-yl)oxy]-4-cyclopentyl-2-fluorophenyl}pyrimidin-2-amine] | – | 36.9 | 3.6 | – |
| Nc1cnc(-c2ccc(C3CCCC3)c(Oc3nccc(N)n3)c2F)cn1 [Example 336, 2-[3-(5-Aminopyrazin-2-yl)-6-cyclopentyl-2-fluorophenoxy]pyrimidin-4-amine] | – | 23.8 | 3.9 | – |
| Nc1cnc(-c2ccc(C3CCCC3)c(Oc3ncccn3)c2F)cn1 [Example 337, 5-[4-Cyclopentyl-2-fluoro-3-(pyrimidin-2-yloxy)phenyl]pyrazin-2-amine] | – | 162 | 14.8 | – |
| Nc1cnc(-c2ccc(C3CCC3)c(Oc3ccc(N)nn3)c2F)cn1 [Example 338, 6-[3-(5-Aminopyrazin-2-yl)-6-cyclobutyl-2-fluorophenoxy]pyridazin-3-amine] | – | 95.9 | 1.7 | – |
| Nc1cnc(-c2ccc(C3CCC3)c(OCc3ncccn3)c2F)cn1 [Example 339, 5-[4-Cyclobutyl-2-fluoro-3-(pyrimidin-2-ylmethoxy)phenyl]pyrazin-2-amine] | – | 1640 | 108 | – |
| Nc1cnc(-c2ccc(C3CCC3)c(OCc3ccc(-c4cnc(N)nc4)cc3)c2F)cn1 [Example 341, 5-(4-{[3-(5-Aminopyrazin-2-yl)-6-cyclobutyl-2-fluorophenoxy]methyl}phenyl)pyrimidin-2-amine] | – | 124 | 22.6 | – |
| Nc1cnc(-c2ccc(C3CCC3)c(OCc3ccc(-c4ccc(C(F)(F)F)cc4)cc3)c2F)cn1 [Example 342, 5-(4-Cyclobutyl-2-fluor-3-{[4-(trifluoromethyl)biphenyl-4-yl]methoxy}phenyl)pyrazin-2-amine] | – | 26.3 | 8.1 | – |
| Nc1ncc(-c2ccc(C3CCCCC3)c(Oc3ncccn3)c2F)cn1 [Example 343, 5-[4-Cyclohexyl-2-fluoro-3-(pyrimidin-2-yloxy)phenyl]pyrimidin-2-amine] | – | 14.4 | 5.4 | – |
| Nc1cnc(-c2ccc(C3CCCCC3)c(O)c2F)cn1 [Example 345, 3-(5-Aminopyrazin-2-yl)-6-cyclohexyl-2-fluorophenol] | – | 15.1 | 14.2 | – |
| Nc1cnc(-c2ccc(CC3CCCCC3)c(O)c2F)cn1 [Example 346, 3-(5-Aminopyrazin-2-yl)-6-(cyclohexylmethyl)-2-fluorophenol] | – | 176 | 45.3 | – |

Source: patent US9732093B2, “FLAP modulators” (JANSSEN PHARMACEUTICA NV, priority 2013, dated 2017)
